In test [1] the target is T1, KCNMA1/KCNMB4 (Rattus norvegicus) (UniProt Q62976+Q9ESK8). The test can be described thus: Inhibition of BK alpha/beta-4 in PTZ-stimulated rat hippocampal pyramidal neurons assessed as increase in AHP size at 300 pA at -80mV holding potential measured after 10 mins by whole cell current clamp assay. Type of test: protein-complex assay.
Test [2] is filed under the species Rattus norvegicus. The test can be described thus: Anticonvulsant activity against PTZ-induced epileptic seizure Sprague-Dawley rat model assessed as latency time of seizures compound infused into hippocampal region and 10 mins later injected with PTZ and measured for 2 hrs post PTZ-stimulation (reference value: 108.5 +/- 8.63 sec). The class given is functional.

For test [3], the target named is T1, KCNMA1/KCNMB4 (Rattus norvegicus). The test can be described thus: Inhibition of BK alpha/beta-4 in PTZ-stimulated rat hippocampal pyramidal neurons assessed as larger action potential width at 300 pA current injection at -80mV holding potential measured after 10 mins by whole cell current clamp assay. Type of test: protein-complex assay.
The species entered for test [4] is Rattus norvegicus. The test can be described thus: Effect on neuronal network in PTZ-induced epileptic seizures Sprague-Dawley rat model assessed as reduced total PSD frequency waves compound infused into hippocampal region and 10 mins later injected with PTZ and measured after 2 hrs by power spectral density analysis. The class given is functional, organism-based.

The species named for test [5] is Rattus norvegicus. The test can be described thus: Neuroprotective activity in PTZ-induced epileptic seizure Sprague-Dawley rat model assessed as inhibition of hippocampal destruction by measuring increase in Nissl stained granular neurons in ipsilateral hippocampus DG region compound infused into hippocampal region and 10 mins later injected with PTZ and measured after 3 days by Nissl staining based microscopic analysis. The class given is functional, organism-based.

A further test addresses KCNMA1/KCNMB4 (Homo sapiens, UniProt Q12791+Q86W47). The test can be described thus: Inhibition of human BK alpha/beta4 channel expressed in HEK293T cells assessed as K+ outward current fraction at 10 uM at -80 mV holding potential by whole cell patch clamp method relative to control. Type of test: cell-based. On the technique in general: In patch-clamp work, channel activity is measured electrically.

For test [6], the species on record is Rattus norvegicus. The test can be described thus: Anticonvulsant activity against PTZ-induced epileptic seizures Sprague-Dawley rat model assessed as decrease in number of seizures at high stage (stage 4 and 5) compound infused into hippocampal region and 10 mins later injected with PTZ and measured for 2 hrs post-PTZ stimulation. Type of test: functional, organism-based.

Test [7] is filed under the species Rattus norvegicus. The test can be described thus: Anticonvulsant activity against PTZ-induced epileptic seizure Sprague-Dawley rat model assessed as reduction in mortality rate compound infused into hippocampal region and 10 mins later injected with PTZ and measured for 2 hrs post PTZ-stimulation. Type of test: functional, organism-based.
The species named for test [8] is Rattus norvegicus. The test can be described thus: Effect on neuronal network in PTZ-induced epileptic seizures Sprague-Dawley rat model assessed as lowered PSD at theta wave band compound infused into hippocampal region and 10 mins later injected with PTZ and measured after 2 hrs by power spectral density analysis. Type of test: functional, organism-based.
Test [9] has as its target T2, Calcium-activated potassium channel subunit beta-4 (Homo sapiens, UniProt Q86W47).
T2 sequence (Q86W47 whole entry): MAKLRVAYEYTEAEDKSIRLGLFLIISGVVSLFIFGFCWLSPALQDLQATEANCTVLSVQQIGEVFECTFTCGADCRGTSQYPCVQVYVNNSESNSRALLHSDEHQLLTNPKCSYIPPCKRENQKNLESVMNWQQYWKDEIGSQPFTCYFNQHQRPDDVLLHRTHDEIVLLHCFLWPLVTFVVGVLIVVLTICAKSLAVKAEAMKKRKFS
The test can be described thus: Binding affinity to NT-495 fluorophore reagent labelled human BK beta4 (45 to 166 residues) incubated for 30 mins by microscale thermophoresis assay. As to conditions: read-out: Kd.

Test [10] is filed under the species Rattus norvegicus. The test can be described thus: Effect on neuronal network in PTZ-induced epileptic seizures Sprague-Dawley rat model assessed as lowered PSD at beta wave band compound infused into hippocampal region and 10 mins later injected with PTZ and measured after 2 hrs by power spectral density analysis. The class given is functional, organism-based.

The species entered for test [11] is Rattus norvegicus. The test can be described thus: Neuroprotective activity in PTZ-induced epileptic seizure Sprague-Dawley rat model assessed as inhibition of hippocampal destruction by measuring increase in Nissl stained pyramidal neurons in ipsilateral hippocampus CA3 region compound infused into hippocampal region and 10 mins later injected with PTZ and measured after 3 days by Nissl staining based microscopic analysis. The class given is functional, organism-based.

The species named for test [12] is Rattus norvegicus. The test can be described thus: Inhibition of C-Fos expression in PTZ-induced epileptic seizures Sprague-Dawley rat model assessed as inhibition of FLI-positive granular neurons in DG region of contralateral hippocampus at 10 uM compound infused into hippocampal region and 10 mins later injected with PTZ and measured after 2 hrs by immunohistochemistry. Type of test: functional, organism-based.

Test [13] deals with T1, KCNMA1/KCNMB4 (Rattus norvegicus). The test can be described thus: Inhibition of BK alpha/beta-4 in PTZ-stimulated rat hippocampal pyramidal neurons assessed as slower decay of after hyperpolarization at 300 pA at -80mV holding potential measured after 10 mins by whole cell current clamp assay. The class given is protein-complex assay.
Test [14] is filed under the species Rattus norvegicus. The test can be described thus: Anticonvulsant activity against PTZ-induced epileptic seizure Sprague-Dawley rat model assessed as duration of seizure compound infused into hippocampal region and 10 mins later injected with PTZ and measured for 2 hrs post PTZ-stimulation (reference value: 376 +/- 76.43 sec). Type of test: functional.
The species named for test [15] is Rattus norvegicus. The test can be described thus: Inhibition of field potential response in PTZ-induced epileptic seizure Sprague-Dawley rat model compound infused into hippocampal region and 10 mins later injected with PTZ and measured after 2 hrs by microarray electrode based analysis. Type of test: functional, organism-based.
The species entered for test [16] is Rattus norvegicus. The test can be described thus: Effect on neuronal network in PTZ-induced epileptic seizures Sprague-Dawley rat model assessed as lowered PSD at gamma wave band compound infused into hippocampal region and 10 mins later injected with PTZ and measured after 2 hrs by power spectral density analysis. Type of test: functional, organism-based.
Test [17] is filed under the species Rattus norvegicus. The test can be described thus: Inhibition of C-Fos expression in PTZ-induced epileptic seizures Sprague-Dawley rat model assessed as inhibition of FLI-positive pyramidal neurons in CA3 region of ipsilateral hippocampus at 10 uM compound infused into hippocampal region and 10 mins later injected with PTZ and measured after 2 hrs by immunohistochemistry. Type of test: functional, organism-based.

The species entered for test [18] is Rattus norvegicus. The test can be described thus: Neuroprotective activity in PTZ-induced epileptic seizure Sprague-Dawley rat model assessed as inhibition of hippocampal destruction by measuring increase in Nissl stained pyramidal neurons in contralateral hippocampus CA1 region compound infused into hippocampal region and 10 mins later injected with PTZ and measured after 3 days by Nissl staining based microscopic analysis. The class given is functional, organism-based.

The species entered for test [19] is Rattus norvegicus. The test can be described thus: Inhibition of C-Fos expression in PTZ-induced epileptic seizures Sprague-Dawley rat model assessed as inhibition of FLI-positive pyramidal neurons in CA3 region of contralateral hippocampus at 10 uM compound infused into hippocampal region and 10 mins later injected with PTZ and measured after 2 hrs by immunohistochemistry. Type of test: functional, organism-based.

The species entered for test [20] is Rattus norvegicus. The test can be described thus: Effect on neuronal network in PTZ-induced epileptic seizures Sprague-Dawley rat model assessed as lowered PSD at delta wave band compound infused into hippocampal region and 10 mins later injected with PTZ and measured after 2 hrs by power spectral density analysis. The class given is functional, organism-based.

For test [21], the species on record is Rattus norvegicus. The test can be described thus: Effect on neuronal network in PTZ-induced epileptic seizures Sprague-Dawley rat model assessed as lowered PSD at alpha wave band compound infused into hippocampal region and 10 mins later injected with PTZ and measured after 2 hrs by power spectral density analysis. The class given is functional, organism-based.

For test [22], the species on record is Rattus norvegicus. The test can be described thus: Inhibition of C-Fos expression in PTZ-induced epileptic seizures Sprague-Dawley rat model assessed as inhibition of FLI-positive granular neurons in DG region of ipsilateral hippocampus at 10 uM compound infused into hippocampal region and 10 mins later injected with PTZ and measured after 2 hrs by immunohistochemistry. Type of test: functional, organism-based.

The text below walks through data of ChEMBL document CHEMBL4354835, “Selective Blockade of Neuronal BK (α + β4) Channels Preventing Epileptic Seizure” (J Med Chem, 2020).

Active and inactive are the calls of the source. No cut-off for these calls is given here.

On to `CC[C@H](C)[C@H](NC(=O)[C@H](CC(C)C)NC(=O)CNC(=O)[C@H](Cc1ccccc1)NC(=O)[C@H](CO)NC(=O)CN)C(=O)N[C@@H](CC(=O)O)C(=O)N[C@H](C(=O)N[C@@H](CCCCN)C(=O)N[C@H]1CSSC[C@@H]2NC(=O)[C@H](CCCCN)NC(=O)CNC(=O)[C@H](C)NC(=O)CNC(=O)[C@H](CO)NC(=O)CNC(=O)[C@H]([C@@H](C)O)NC(=O)[C@H](C(C)C)NC(=O)[C@H](CCCCN)NC(=O)[C@H](CCCCN)NC(=O)[C@@H]3CSSC[C@@H](C(=O)N[C@@H](Cc4ccc(O)cc4)C(=O)O)N[C@@H](CCCNC(=N)N)C(=O)[C@H](CSSC[C@H](NC(=O)[C@H](CCC(=O)O)NC(=O)[C@H](CO)NC(=O)[C@H](CO)NC(=O)[C@H](C)NC(=O)[C@H](Cc4ccccc4)NC1=O)C(=O)N[C@@H](Cc1c[nH]c4ccccc14)C(=O)N[C@@H]([C@@H](C)O)C(=O)N[C@@H](C)C(=O)N3)N[C@@H](CCC(N)=O)C(=O)NC(=O)[C@H](CC(N)=O)NC(=O)[C@H](CC(N)=O)NC(=O)[C@H](CCC(N)=O)NC2=O)C(C)C`, for which the inhibition entry (in [1]; in the test listed under Rattus norvegicus [4]; in the test filed under Rattus norvegicus [12]; in [13]; in the test listed under Rattus norvegicus [15]; in the test listed under Rattus norvegicus [17]) was “inactive” in each case. The inhibition entry in the test listed under Rattus norvegicus [19] and in the test listed under Rattus norvegicus [22] was “inactive” in each case. In addition, the Time in the test filed under Rattus norvegicus [2] was in the range of 219.5 to 266.5 s; in the test filed under Rattus norvegicus [14] it was 316.66 to 353.33 s. The inhibition result in [3] was “Active”. For the same compound, the result in the test filed under Rattus norvegicus [5] and in the test listed under Rattus norvegicus [11] was Active. Besides, the Ratio on KCNMA1/KCNMB4 came out at 0.74. The outcome in the test filed under Rattus norvegicus [6], in the test filed under Rattus norvegicus [7], in the test listed under Rattus norvegicus [8], in the test filed under Rattus norvegicus [10], in the test listed under Rattus norvegicus [16] and in the test filed under Rattus norvegicus [18] was inactive. For the same compound, the outcome in the test filed under Rattus norvegicus [20] and in the test listed under Rattus norvegicus [21] was inactive. In addition, in [9], the Kd (commonly a measure of binding affinity in units of concentration) amounted to 640 µM.
On to `CC[C@H](C)[C@H](NC(=O)[C@H](CC(C)C)NC(=O)CNC(=O)[C@H](Cc1ccccc1)NC(=O)[C@H](CO)NC(=O)CN)C(=O)N[C@@H](CCCCN)C(=O)N[C@H](C(=O)N[C@@H](CCCCN)C(=O)N[C@H]1CSSC[C@@H]2NC(=O)[C@H](CCCCN)NC(=O)CNC(=O)[C@H](CCC(N)=O)NC(=O)CNC(=O)[C@H](CO)NC(=O)CNC(=O)[C@H]([C@@H](C)O)NC(=O)[C@H](C(C)C)NC(=O)[C@H](CCCCN)NC(=O)[C@H](CCCCN)NC(=O)[C@@H]3CSSC[C@@H](C(=O)N[C@@H](Cc4ccc(O)cc4)C(=O)O)N[C@@H](CCCNC(=N)N)C(=O)[C@H](CSSC[C@H](NC(=O)[C@H](CCCCN)NC(=O)[C@H](CO)NC(=O)[C@H](CO)NC(=O)[C@H](C)NC(=O)[C@H](Cc4ccccc4)NC1=O)C(=O)N[C@@H](Cc1c[nH]c4ccccc14)C(=O)N[C@@H]([C@@H](C)O)C(=O)N[C@@H](C)C(=O)N3)N[C@@H](CCC(N)=O)C(=O)NC(=O)[C@H](CC(N)=O)NC(=O)[C@H](CC(N)=O)NC(=O)[C@H](CCC(N)=O)NC2=O)C(C)C`, for which, at KCNMA1/KCNMB4, the Ratio worked out at 0.56. Moreover, the Kd in [9] came to 1100 µM.
For the compound `CC[C@H](C)[C@H](NC(=O)[C@H](CC(C)C)NC(=O)CNC(=O)[C@H](Cc1ccccc1)NC(=O)[C@H](CO)NC(=O)CN)C(=O)N[C@@H](CC(=O)O)C(=O)N[C@H](C(=O)N[C@@H](CCCCN)C(=O)N[C@H]1CSSC[C@@H]2NC(=O)[C@H](CCCCN)NC(=O)CNC(=O)[C@H](CCC(N)=O)NC(=O)CNC(=O)[C@H](CO)NC(=O)CNC(=O)[C@H]([C@@H](C)O)NC(=O)[C@H](C(C)C)NC(=O)[C@H](CCCCN)NC(=O)[C@H](CCCCN)NC(=O)[C@@H]3CSSC[C@@H](C(=O)N[C@@H](Cc4ccc(O)cc4)C(=O)O)N[C@@H](CCCNC(=N)N)C(=O)[C@H](CSSC[C@H](NC(=O)[C@H](CCC(=O)O)NC(=O)[C@H](CO)NC(=O)[C@H](CO)NC(=O)[C@H](C)NC(=O)[C@H](Cc4ccccc4)NC1=O)C(=O)N[C@@H](Cc1c[nH]c4ccccc14)C(=O)N[C@@H](C(C)C)C(=O)N[C@@H](C)C(=O)N3)N[C@@H](CCC(N)=O)C(=O)NC(=O)[C@H](CC(N)=O)NC(=O)[C@H](CC(N)=O)NC(=O)[C@H](CCC(N)=O)NC2=O)C(C)C`, the Ratio on KCNMA1/KCNMB4 came to 0.36. Besides, in test [9], the Kd is 550 µM.
